Results published in the CheMixHub viscosity set.

Assay: xn = mol fraction of the nth substance listed

CN1CCC[C@H]1c1cccnc1 + CC(C)=O
viscosity [mPa·s], 101 kPa
Conditions	x1 = 0.1173	x1 = 0.2498	x1 = 0.378	x1 = 0.5005	x1 = 0.6228	x1 = 0.7485	x1 = 0.8439
298.15 K	0.4615	0.6975	0.9326	1.28	1.695	2.274	2.856
308.15 K	0.4184	0.6054	0.7994	1.075	1.397	1.818	2.248
323.15 K	0.3526	0.4988	0.6476	0.8411	1.065	1.364	1.619

OCCCO + CC(C)=O
viscosity [mPa·s], 100 kPa
Conditions	x2 = 0.1008	x2 = 0.1914	x2 = 0.3021	x2 = 0.4009	x2 = 0.51	x2 = 0.6004	x2 = 0.7	x2 = 0.7983	x2 = 0.9002
293.15 K	29.2	17.28	9.162	5.229	2.942	1.764	1.321	1.18	1.04
298.15 K	23.55	14.22	7.721	4.496	2.567	1.583	1.14	1.038	0.9174
303.15 K	19.21	11.82	6.554	3.894	2.257	1.428	1.031	0.9173	0.8122
308.15 K	15.86	9.922	5.609	3.395	1.997	1.293	0.9331	0.8138	0.722
313.15 K	13.22	8.416	4.85	2.979	1.78	1.175	0.8442	0.7248	0.6442
318.15 K	11.13	7.191	4.215	2.633	1.597	1.07	0.7632	0.6479	0.5768
323.15 K	9.46	6.198	3.679	2.343	1.433	0.9737	0.6946	0.5811	0.5183

CCOC(=O)CCC(=O)OCC + CC(C)CCO
viscosity [mPa·s], 100 kPa
Conditions	293.15 K	298.15 K	313.15 K
x1 = 0.5	–	2.025	–
x1 = 0.7999	2.455	–	1.635

CCOC(=O)CCC(=O)OCC + CC(C)CO
Conditions	viscosity [mPa·s]
303.15 K, 100 kPa, x1 = 0.0999	2.135

NC=O + CC(C)CO
308 K, 101 kPa
Conditions	viscosity [mPa·s]
x1 = 0.1092	2.344
x1 = 0.2053	2.444
x1 = 0.3677	2.574
x1 = 0.4992	2.682
x1 = 0.6079	2.757
x1 = 0.6993	2.788
x1 = 0.7772	2.782
x1 = 0.844	2.744
x1 = 0.9029	2.701

CCN(CC)CC(=O)Nc1c(C)cccc1C + CC(C)[C@@H]1CC[C@@H](C)C[C@H]1O
100 kPa, x2 = 0.667
Conditions	viscosity [mPa·s]
293.15 K	69.38
298.15 K	45.91
303.15 K	31.73
308.15 K	22.78
313.15 K	16.87
318.15 K	12.85
323.15 K	10.02

CN1CCC[C@H]1c1cccnc1 + CC(O)CO
100 kPa
Conditions	viscosity [mPa·s]
293.15 K, x1 = 0.1	59.35
293.15 K, x1 = 0.3	44.85
298.15 K, x1 = 0.6005	14.25
303.15 K, x1 = 0.2009	28.85
308.15 K, x1 = 0.6005	8.935
313.15 K, x1 = 0.7	5.605
313.15 K, x1 = 0.7983	4.425
318.15 K, x1 = 0.3	11.45

NC=O + CC(O)CO
viscosity [mPa·s], 101 kPa
Conditions	293.15 K	298.15 K	303.15 K	308.15 K	313.15 K	318.15 K
x1 = 0.0567	41.37	33.51	27.96	23	18.07	14.26
x1 = 0.1191	36.96	29.71	24.4	19.81	15.28	11.93
x1 = 0.1736	–	29.68	–	–	–	–
x1 = 0.1881	33.2	26.49	21.59	17.16	12.95	9.801
x1 = 0.2649	29.41	23.3	18.92	14.86	10.98	8.107
x1 = 0.3159	–	22.75	–	–	–	–
x1 = 0.3409	25.85	20.41	16.5	12.9	9.425	6.875
x1 = 0.4166	–	18.75	–	–	–	–
x1 = 0.4478	21.21	16.73	13.52	10.58	7.704	5.602
x1 = 0.5518	–	14.59	–	–	–	–
x1 = 0.5578	16.8	13.31	10.81	8.506	6.3	4.653
x1 = 0.6017	–	13.69	–	–	–	–
x1 = 0.654	–	12.31	–	–	–	–
x1 = 0.6838	12.2	9.902	8.159	6.542	5.072	3.959
x1 = 0.7347	–	10.26	–	–	–	–
x1 = 0.8117	–	8.254	–	–	–	–
x1 = 0.8295	7.586	6.35	5.433	4.647	3.789	3.144
x1 = 0.8808	–	6.511	–	–	–	–
x1 = 0.8818	6.101	5.206	4.59	4.003	3.386	2.902
x1 = 0.9392	4.756	4.189	3.805	3.401	2.96	2.601
x1 = 0.9434	–	4.916	–	–	–	–

OCCCO + CC(O)CO
viscosity [mPa·s], 101 kPa
Conditions	x2 = 0.1014	x2 = 0.2101	x2 = 0.2999	x2 = 0.4071	x2 = 0.5013	x2 = 0.5925	x2 = 0.7113	x2 = 0.8005	x2 = 0.9208
298.15 K	42.34	42.71	–	–	43.62	43.82	43.95	43.88	–
303.15 K	–	34.03	34.2	34.39	34.49	34.55	34.49	34.36	34.11
308.15 K	27.18	27.11	27.05	–	–	–	26.36	26.06	25.59

CN1CCC[C@H]1c1cccnc1 + CCC(C)=O
viscosity [mPa·s], 101 kPa
Conditions	x1 = 0.1253	x1 = 0.2463	x1 = 0.3642	x1 = 0.4878	x1 = 0.6133	x1 = 0.7374	x1 = 0.883
298.15 K	0.5454	0.7187	0.9572	1.246	1.646	2.2	3.069
323.15 K	0.4075	0.5104	0.6647	0.8283	1.041	1.316	1.767

OCCCO + CCC(C)=O
Conditions	viscosity [mPa·s]
318.15 K, 100 kPa, x1 = 0.7989	6.885

NC=O + CCC(C)O
101 kPa
Conditions	viscosity [mPa·s]
293.15 K, x1 = 0.5093	4.025
318.15 K, x1 = 0.9024	2.175

CN1CCC[C@H]1c1cccnc1 + CCCC(=O)O
viscosity [mPa·s], 101 kPa
Conditions	298.15 K	323.15 K
x1 = 0.099	11.74	5.188
x1 = 0.1992	48.69	14.24
x1 = 0.2139	52.39	14.9
x1 = 0.2277	53.82	15.04
x1 = 0.234	53.97	15.13
x1 = 0.2478	54.2	14.99
x1 = 0.2707	53.87	14.89
x1 = 0.2993	50.77	13.9
x1 = 0.3872	29.61	9.46
x1 = 0.5011	17.55	–
x1 = 0.6081	11.63	4.462
x1 = 0.697	8.404	3.766
x1 = 0.804	6.265	2.983
x1 = 0.8928	5.192	2.579
